Results: patent US20230263825A1, “ANTI-CANCER ACTIVITY OF PERBORATE SALTS” (priority 2020, published 2023)

Assay: Toxicology in rats, oral, histopathology
Type: in vivo
Conditions: rat, in vivo, po
Text: After 32 days, the rats were sacrificed and their organs were examined under a microscope.

O.O.O.O.[Na+].[O-]B1OO1 [sodium perborate tetrahydrate]
HEART Notable or abnormal, % (0.125 mg/kg): 0% | HEART Notable or abnormal, No Exam (0.125 mg/kg): 0/10 | HEART Within normal limits, % (0.125 mg/kg): 100% | HEART Within normal limits, No Exam (0.125 mg/kg): 10/10 | INTESTINE, Large Notable or abnormal, % (0.125 mg/kg): 0% | INTESTINE, Large Notable or abnormal, No Exam (0.125 mg/kg): 0/10 | INTESTINE, Large Within normal limits, % (0.125 mg/kg): 100% | INTESTINE, Large Within normal limits, No Exam (0.125 mg/kg): 10/10 | INTESTINE, Small Notable or abnormal, % (0.125 mg/kg): 0% | INTESTINE, Small Notable or abnormal, No Exam (0.125 mg/kg): 0/10 | INTESTINE, Small Within normal limits, % (0.125 mg/kg): 100% | INTESTINE, Small Within normal limits, No Exam (0.125 mg/kg): 10/10 | KIDNEY Edema, % (0.125 mg/kg): 0% | KIDNEY Edema, No Exam (0.125 mg/kg): 0/10 | KIDNEY Notable or abnormal, % (0.125 mg/kg): 0% | KIDNEY Notable or abnormal, No Exam (0.125 mg/kg): 0/10 | KIDNEY Within normal limits, % (0.125 mg/kg): 100% | KIDNEY Within normal limits, No Exam (0.125 mg/kg): 10/10 | LIVER Fattening, % (0.125 mg/kg): 0% | LIVER Fattening, No Exam (0.125 mg/kg): 0/10 | LIVER Infiltration, % (0.125 mg/kg): 0% | LIVER Infiltration, No Exam (0.125 mg/kg): 0/10 | LIVER Notable or abnormal, % (0.125 mg/kg): 0% | LIVER Notable or abnormal, No Exam (0.125 mg/kg): 0/10 | LIVER Within normal limits, % (0.125 mg/kg): 100% | LIVER Within normal limits, No Exam (0.125 mg/kg): 10/10 | LUNG Lymphocytic infiltration, % (0.125 mg/kg): 0% | LUNG Lymphocytic infiltration, No Exam (0.125 mg/kg): 0/10 | LUNG Notable or abnormal, % (0.125 mg/kg): 0% | LUNG Notable or abnormal, No Exam (0.125 mg/kg): 0/10 | LUNG Pulmonary edema, % (0.125 mg/kg): 0% | LUNG Pulmonary edema, No Exam (0.125 mg/kg): 0/10 | LUNG Within normal limits, % (0.125 mg/kg): 100% | LUNG Within normal limits, No Exam (0.125 mg/kg): 10/10 | PANCREAS Notable or abnormal, % (0.125 mg/kg): 0% | PANCREAS Notable or abnormal, No Exam (0.125 mg/kg): 0/10 | PANCREAS Within normal limits, % (0.125 mg/kg): 100% | PANCREAS Within normal limits, No Exam (0.125 mg/kg): 10/10 | SPLEEN Notable or abnormal, % (0.125 mg/kg): 0% | SPLEEN Notable or abnormal, No Exam (0.125 mg/kg): 0/10 | SPLEEN Within normal limits, % (0.125 mg/kg): 100% | SPLEEN Within normal limits, No Exam (0.125 mg/kg): 10/10 | STOMACH Notable or abnormal, % (0.125 mg/kg): 0% | STOMACH Notable or abnormal, No Exam (0.125 mg/kg): 0/10 | STOMACH Within normal limits, % (0.125 mg/kg): 100% | STOMACH Within normal limits, No Exam (0.125 mg/kg): 10/10 | HEART Notable or abnormal, % (0.25 mg/kg): 0% | HEART Notable or abnormal, No Exam (0.25 mg/kg): 0/10 | HEART Within normal limits, % (0.25 mg/kg): 100% | HEART Within normal limits, No Exam (0.25 mg/kg): 10/10 | INTESTINE, Large Notable or abnormal, % (0.25 mg/kg): 0% | INTESTINE, Large Notable or abnormal, No Exam (0.25 mg/kg): 0/10 | INTESTINE, Large Within normal limits, % (0.25 mg/kg): 100% | INTESTINE, Large Within normal limits, No Exam (0.25 mg/kg): 10/10 | INTESTINE, Small Notable or abnormal, % (0.25 mg/kg): 0% | INTESTINE, Small Notable or abnormal, No Exam (0.25 mg/kg): 0/10 | INTESTINE, Small Within normal limits, % (0.25 mg/kg): 100% | INTESTINE, Small Within normal limits, No Exam (0.25 mg/kg): 10/10 | KIDNEY Edema, % (0.25 mg/kg): 0% | KIDNEY Edema, No Exam (0.25 mg/kg): 0/10 | KIDNEY Notable or abnormal, % (0.25 mg/kg): 0% | KIDNEY Notable or abnormal, No Exam (0.25 mg/kg): 0/10 | KIDNEY Within normal limits, % (0.25 mg/kg): 100% | KIDNEY Within normal limits, No Exam (0.25 mg/kg): 10/10 | LIVER Fattening, % (0.25 mg/kg): 0% | LIVER Fattening, No Exam (0.25 mg/kg): 0/10 | LIVER Infiltration, % (0.25 mg/kg): 0% | LIVER Infiltration, No Exam (0.25 mg/kg): 0/10 | LIVER Notable or abnormal, % (0.25 mg/kg): 0% | LIVER Notable or abnormal, No Exam (0.25 mg/kg): 0/10 | LIVER Within normal limits, % (0.25 mg/kg): 100% | LIVER Within normal limits, No Exam (0.25 mg/kg): 10/10 | LUNG Lymphocytic infiltration, % (0.25 mg/kg): 0% | LUNG Lymphocytic infiltration, No Exam (0.25 mg/kg): 0/10 | LUNG Notable or abnormal, % (0.25 mg/kg): 0% | LUNG Notable or abnormal, No Exam (0.25 mg/kg): 0/10 | LUNG Pulmonary edema, % (0.25 mg/kg): 0% | LUNG Pulmonary edema, No Exam (0.25 mg/kg): 0/10 | LUNG Within normal limits, % (0.25 mg/kg): 100% | LUNG Within normal limits, No Exam (0.25 mg/kg): 10/10 | PANCREAS Notable or abnormal, % (0.25 mg/kg): 0% | PANCREAS Notable or abnormal, No Exam (0.25 mg/kg): 0/10 | PANCREAS Within normal limits, % (0.25 mg/kg): 100% | PANCREAS Within normal limits, No Exam (0.25 mg/kg): 10/10 | SPLEEN Notable or abnormal, % (0.25 mg/kg): 0% | SPLEEN Notable or abnormal, No Exam (0.25 mg/kg): 0/10 | SPLEEN Within normal limits, % (0.25 mg/kg): 100% | SPLEEN Within normal limits, No Exam (0.25 mg/kg): 10/10 | STOMACH Notable or abnormal, % (0.25 mg/kg): 0% | STOMACH Notable or abnormal, No Exam (0.25 mg/kg): 0/10 | STOMACH Within normal limits, % (0.25 mg/kg): 100% | STOMACH Within normal limits, No Exam (0.25 mg/kg): 10/10 | HEART Notable or abnormal, % (0.5 mg/kg): 0% | HEART Notable or abnormal, No Exam (0.5 mg/kg): 0/10 | HEART Within normal limits, % (0.5 mg/kg): 100% | HEART Within normal limits, No Exam (0.5 mg/kg): 10/10 | INTESTINE, Large Notable or abnormal, % (0.5 mg/kg): 0% | INTESTINE, Large Notable or abnormal, No Exam (0.5 mg/kg): 0/10 | INTESTINE, Large Within normal limits, % (0.5 mg/kg): 100% | INTESTINE, Large Within normal limits, No Exam (0.5 mg/kg): 10/10 | INTESTINE, Small Notable or abnormal, % (0.5 mg/kg): 0% | INTESTINE, Small Notable or abnormal, No Exam (0.5 mg/kg): 0/10 | INTESTINE, Small Within normal limits, % (0.5 mg/kg): 100% | INTESTINE, Small Within normal limits, No Exam (0.5 mg/kg): 10/10 | KIDNEY Edema, % (0.5 mg/kg): 0% | KIDNEY Edema, No Exam (0.5 mg/kg): 0/10 | KIDNEY Notable or abnormal, % (0.5 mg/kg): 0% | KIDNEY Notable or abnormal, No Exam (0.5 mg/kg): 0/10 | KIDNEY Within normal limits, % (0.5 mg/kg): 100% | KIDNEY Within normal limits, No Exam (0.5 mg/kg): 10/10 | LIVER Fattening, % (0.5 mg/kg): 0% | LIVER Fattening, No Exam (0.5 mg/kg): 0/10 | LIVER Infiltration, % (0.5 mg/kg): 0% | LIVER Infiltration, No Exam (0.5 mg/kg): 0/10 | LIVER Notable or abnormal, % (0.5 mg/kg): 0% | LIVER Notable or abnormal, No Exam (0.5 mg/kg): 0/10 | LIVER Within normal limits, % (0.5 mg/kg): 100% | LIVER Within normal limits, No Exam (0.5 mg/kg): 10/10 | LUNG Lymphocytic infiltration, % (0.5 mg/kg): 0% | LUNG Lymphocytic infiltration, No Exam (0.5 mg/kg): 0/10 | LUNG Notable or abnormal, % (0.5 mg/kg): 0% | LUNG Notable or abnormal, No Exam (0.5 mg/kg): 0/10 | LUNG Pulmonary edema, % (0.5 mg/kg): 0% | LUNG Pulmonary edema, No Exam (0.5 mg/kg): 0/10 | LUNG Within normal limits, % (0.5 mg/kg): 100% | LUNG Within normal limits, No Exam (0.5 mg/kg): 10/10 | PANCREAS Notable or abnormal, % (0.5 mg/kg): 0% | PANCREAS Notable or abnormal, No Exam (0.5 mg/kg): 0/10 | PANCREAS Within normal limits, % (0.5 mg/kg): 100% | PANCREAS Within normal limits, No Exam (0.5 mg/kg): 10/10 | SPLEEN Notable or abnormal, % (0.5 mg/kg): 0% | SPLEEN Notable or abnormal, No Exam (0.5 mg/kg): 0/10 | SPLEEN Within normal limits, % (0.5 mg/kg): 100% | SPLEEN Within normal limits, No Exam (0.5 mg/kg): 10/10 | STOMACH Notable or abnormal, % (0.5 mg/kg): 0% | STOMACH Notable or abnormal, No Exam (0.5 mg/kg): 0/10 | STOMACH Within normal limits, % (0.5 mg/kg): 100% | STOMACH Within normal limits, No Exam (0.5 mg/kg): 10/10 | HEART Notable or abnormal, % (1 mg/kg): 0% | HEART Notable or abnormal, No Exam (1 mg/kg): 0/10 | HEART Within normal limits, % (1 mg/kg): 100% | HEART Within normal limits, No Exam (1 mg/kg): 10/10 | INTESTINE, Large Notable or abnormal, % (1 mg/kg): 0% | INTESTINE, Large Notable or abnormal, No Exam (1 mg/kg): 0/10 | INTESTINE, Large Within normal limits, % (1 mg/kg): 100% | INTESTINE, Large Within normal limits, No Exam (1 mg/kg): 10/10 | INTESTINE, Small Notable or abnormal, % (1 mg/kg): 0% | INTESTINE, Small Notable or abnormal, No Exam (1 mg/kg): 0/10 | INTESTINE, Small Within normal limits, % (1 mg/kg): 100% | INTESTINE, Small Within normal limits, No Exam (1 mg/kg): 10/10 | KIDNEY Edema, % (1 mg/kg): 0% | KIDNEY Edema, No Exam (1 mg/kg): 0/10 | KIDNEY Notable or abnormal, % (1 mg/kg): 0% | KIDNEY Notable or abnormal, No Exam (1 mg/kg): 0/10 | KIDNEY Within normal limits, % (1 mg/kg): 100% | KIDNEY Within normal limits, No Exam (1 mg/kg): 10/10 | LIVER Fattening, % (1 mg/kg): 0% | LIVER Fattening, No Exam (1 mg/kg): 0/10 | LIVER Infiltration, % (1 mg/kg): 0% | LIVER Infiltration, No Exam (1 mg/kg): 0/10 | LIVER Notable or abnormal, % (1 mg/kg): 0% | LIVER Notable or abnormal, No Exam (1 mg/kg): 0/10
